Patent publication US9051278B2, “3,4-disubstituted 1H-pyrazole compounds and their use as cyclin dependent kinase and glycogen synthase kinase-3 modulators” (Astex Therapeutics, Ltd., priority 2003, dated 2015)

Legend:
[1] = tested on: human colon carcinoma cell line HCT 116; test: Anti-proliferative activity, Alamar Blue assay; format: cell-based; conditions: HCT 116, 72 hours, read-out: IC50 (inhibition of cell growth)
Experimental: The anti-proliferative activities of compounds of the invention are determined by measuring the ability of the compounds to inhibition of cell growth in a number of cell lines Inhibition of cell growth is measured using the Alamar Blue assay (Nociari, M. M, Shalev, A., Benias, P., Russo, C. Journal of Immunological Methods 1998, 213, 157-167). The method is based on the ability of viable cells to reduce resazurin to its fluorescent product resorufin. For each proliferation assay cells are plated onto 96 well plates and allowed to recover for 16 hours prior to the addition of inhibitor compounds for a further 72 hours. At the end of the incubation period 10% (v/v) Alamar Blue is added and incubated for a further 6 hours prior to determination of fluorescent product at […]. In the case of the non-proliferating cell assay cells are maintained at confluence for 96 hour prior to the addition of inhibitor compounds for a further 72 hours. The number of viable cells is determined by Alamar Blue assay as before. All cell lines are obtained from ECACC (European Collection of cell Cultures).

GSK3-β = target: T1, GSK3-β (Homo sapiens, UniProt P49841); test: Inhibitory activity against glycogen synthase kinase-3 (Protocol A or B); format: biochemical; conditions: either Protocol A or Protocol B; read-out: IC50 (GSK3-B assays)
T1 construct: purchased Upstate Discovery
Experimental: The activities of the compounds of the invention as inhibitors of GSK-3 were determined using either Protocol A or Protocol B below.
The reaction is allowed to proceed for 3 hours before being stopped with an excess of ortho-phosphoric acid (5 μl at 2%). The filtration procedure is as for Activated CDK2/CyclinA assay above.
GSK3β (human) is diluted to a 10× working stock in 50 mM Tris pH 7.5, 0.1 mM EGTA, 0.1 mM sodium vanadate, 0.1% β-mercaptoethanol, 1 mg/ml BSA.

T1 sequence (P49841 whole entry): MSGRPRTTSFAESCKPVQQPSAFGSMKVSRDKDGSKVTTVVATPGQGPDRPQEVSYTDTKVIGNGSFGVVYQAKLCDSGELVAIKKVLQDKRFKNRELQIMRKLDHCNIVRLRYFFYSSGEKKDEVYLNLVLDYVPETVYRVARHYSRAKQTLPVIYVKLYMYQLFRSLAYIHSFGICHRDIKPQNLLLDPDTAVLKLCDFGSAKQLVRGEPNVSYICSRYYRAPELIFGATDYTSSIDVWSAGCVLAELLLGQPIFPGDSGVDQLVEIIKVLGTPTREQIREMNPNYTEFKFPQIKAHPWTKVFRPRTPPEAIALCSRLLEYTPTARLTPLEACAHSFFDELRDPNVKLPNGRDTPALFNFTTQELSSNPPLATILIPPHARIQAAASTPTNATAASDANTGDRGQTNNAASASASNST

| Compound | IC50 [1] | IC50 (GSK3-β) |
| --- | --- | --- |
| COc1ccc(CNC(=O)c2n[nH]cc2NC(=O)c2c(F)cccc2F)cc1 [Example 62] | < 20 µM | – |
| CN1CCN(c2ccc(CNC(=O)c3n[nH]cc3NC(=O)c3c(F)cccc3F)cc2)CC1 [Example 64] | < 20 µM | – |
| CC(C)(C)C1CCC(NC(=O)c2n[nH]cc2NC(=O)c2c(F)cccc2F)CC1 (centres unmarked) [Example 77] | < 20 µM | < 10 µM |
| O=C(NC1CCNCC1)c1n[nH]cc1NC(=O)c1c(Cl)cccc1Cl [Example 150] | < 20 µM | – |
